In ChEMBL document CHEMBL3822358 (J Med Chem, 2016):
pIC50: −log10 of the molar value.

How the values were obtained:
[1] = Half life in CD rat at 3 mg/kg, iv by LC-MS/MS analysis; type: ADME, organism-based; conditions: CD, in vivo
[2] = biological target: T1, ALK tyrosine kinase receptor (Homo sapiens, UniProt Q9UM73); experiment: Inhibition of ALK phosphorylation in mouse xenografted with human KARPAS299 cells assessed as p-ALK level at 25 mg/kg, po administered as single dose measured after 24 hrs relative to 2 hrs vehicle-treated tumor; type: organism-based; parameters: scale not given: the % may be the effect or the level left; conditions: KARPAS-299
Target sequence in this assay (Q9UM73 19-1620 limits assumed): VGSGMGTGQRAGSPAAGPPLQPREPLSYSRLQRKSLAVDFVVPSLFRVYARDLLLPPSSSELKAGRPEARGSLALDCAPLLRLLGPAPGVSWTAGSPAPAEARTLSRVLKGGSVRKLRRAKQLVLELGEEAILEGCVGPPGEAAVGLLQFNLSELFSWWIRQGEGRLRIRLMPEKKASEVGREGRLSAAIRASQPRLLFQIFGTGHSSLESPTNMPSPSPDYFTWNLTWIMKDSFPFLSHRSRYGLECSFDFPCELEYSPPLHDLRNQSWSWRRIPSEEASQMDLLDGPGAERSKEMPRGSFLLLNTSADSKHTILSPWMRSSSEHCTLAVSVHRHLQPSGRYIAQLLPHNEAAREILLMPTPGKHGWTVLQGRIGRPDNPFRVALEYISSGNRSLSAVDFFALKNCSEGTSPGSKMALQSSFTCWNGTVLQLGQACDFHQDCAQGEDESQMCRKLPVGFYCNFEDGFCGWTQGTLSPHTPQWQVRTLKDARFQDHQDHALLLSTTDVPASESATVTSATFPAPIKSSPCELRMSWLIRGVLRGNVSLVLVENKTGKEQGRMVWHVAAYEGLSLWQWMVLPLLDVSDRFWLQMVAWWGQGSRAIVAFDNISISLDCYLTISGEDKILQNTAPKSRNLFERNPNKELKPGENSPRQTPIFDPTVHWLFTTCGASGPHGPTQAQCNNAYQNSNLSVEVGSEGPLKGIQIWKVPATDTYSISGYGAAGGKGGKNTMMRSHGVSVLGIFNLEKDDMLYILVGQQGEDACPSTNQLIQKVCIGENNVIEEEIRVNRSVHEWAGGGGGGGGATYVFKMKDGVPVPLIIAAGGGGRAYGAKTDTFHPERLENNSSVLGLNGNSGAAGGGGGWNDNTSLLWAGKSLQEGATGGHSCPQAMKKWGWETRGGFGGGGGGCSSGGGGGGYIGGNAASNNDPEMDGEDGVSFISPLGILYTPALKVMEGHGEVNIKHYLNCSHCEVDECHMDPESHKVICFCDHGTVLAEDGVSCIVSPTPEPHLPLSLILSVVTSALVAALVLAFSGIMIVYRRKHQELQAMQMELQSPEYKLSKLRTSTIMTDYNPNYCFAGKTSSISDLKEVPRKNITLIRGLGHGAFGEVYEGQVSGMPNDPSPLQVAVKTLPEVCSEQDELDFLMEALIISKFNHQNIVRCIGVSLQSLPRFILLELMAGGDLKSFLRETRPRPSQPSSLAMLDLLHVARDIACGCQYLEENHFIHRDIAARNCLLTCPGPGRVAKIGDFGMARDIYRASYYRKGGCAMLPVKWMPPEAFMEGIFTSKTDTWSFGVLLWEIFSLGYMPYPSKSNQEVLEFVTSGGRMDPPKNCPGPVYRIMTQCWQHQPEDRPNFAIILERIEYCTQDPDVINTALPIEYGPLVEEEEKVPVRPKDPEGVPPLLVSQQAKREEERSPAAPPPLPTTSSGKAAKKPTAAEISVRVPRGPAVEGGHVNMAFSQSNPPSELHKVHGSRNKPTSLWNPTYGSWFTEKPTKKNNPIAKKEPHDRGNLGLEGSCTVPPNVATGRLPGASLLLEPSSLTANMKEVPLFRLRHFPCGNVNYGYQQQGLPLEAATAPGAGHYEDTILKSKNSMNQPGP

[3] = Cmax in mouse at 10 mg/kg, po by LC-MS/MS analysis; type: ADME, organism-based; parameters: dose 10 mg/kg, route oral; conditions: in vivo
[4] = Half life in mouse at 10 mg/kg, po by LC-MS/MS analysis; type: ADME, organism-based; conditions: in vivo
[5] = Half life in CD rat at 10 mg/kg, po by LC-MS/MS analysis; type: ADME, organism-based; conditions: in vivo
[6] = Volume of distribution at steady state in CD rat at 3 mg/kg, iv by LC-MS/MS analysis; type: ADME, organism-based; conditions: CD, in vivo, read-out: Vdss
[7] = biological target: Insulin-like growth factor 1 receptor (Homo sapiens, UniProt P08069)
[8] = AUC (0 to 24 hrs) in mouse at 10 mg/kg, po by LC-MS/MS analysis; type: ADME, organism-based; parameters: time < 24 hr, dose 10 mg/kg, route oral; conditions: in vivo
animal or person [9] = conditions: Homo sapiens, KARPAS-299, po, 312 h, read-out: TGI
Description: Antitumor activity against human KARPAS299 cells expressing NMP-ALK fusion protein xenografted in SCID/beige mouse assessed as tumor growth inhibition at 10 mg/kg, po administered once daily for 13 days relative to untreated control

animal or person [10] = conditions: Homo sapiens, KARPAS-299, po, 312 h, read-out: TGI; remark: listed apart in the source
Description: Antitumor activity against human KARPAS299 cells expressing NMP-ALK fusion protein xenografted in SCID/beige mouse assessed as tumor growth inhibition at 25 mg/kg, po administered once daily for 13 days relative to untreated control

animal or person [11] = conditions: Homo sapiens, KARPAS-299, po, 312 h, read-out: TGI; remark: listed apart in the source
Description: Antitumor activity against human KARPAS299 cells expressing NMP-ALK fusion protein xenografted in SCID/beige mouse assessed as tumor growth inhibition at 50 mg/kg, po administered once daily for 13 days relative to untreated control

[12] = biological target: T1, ALK tyrosine kinase receptor; experiment: Inhibition of ALK phosphorylation in mouse xenografted with human KARPAS299 cells assessed as p-ALK level at 25 mg/kg, po administered as single dose measured after 16 hrs relative to 2 hrs vehicle-treated tumor; type: organism-based; parameters: scale not given: the % may be the effect or the level left; conditions: KARPAS-299
Target sequence in this assay (Q9UM73 19-1620 limits assumed): as above

[13] = biological target: T1, ALK tyrosine kinase receptor
Target sequence in this assay (Q9UM73 whole entry): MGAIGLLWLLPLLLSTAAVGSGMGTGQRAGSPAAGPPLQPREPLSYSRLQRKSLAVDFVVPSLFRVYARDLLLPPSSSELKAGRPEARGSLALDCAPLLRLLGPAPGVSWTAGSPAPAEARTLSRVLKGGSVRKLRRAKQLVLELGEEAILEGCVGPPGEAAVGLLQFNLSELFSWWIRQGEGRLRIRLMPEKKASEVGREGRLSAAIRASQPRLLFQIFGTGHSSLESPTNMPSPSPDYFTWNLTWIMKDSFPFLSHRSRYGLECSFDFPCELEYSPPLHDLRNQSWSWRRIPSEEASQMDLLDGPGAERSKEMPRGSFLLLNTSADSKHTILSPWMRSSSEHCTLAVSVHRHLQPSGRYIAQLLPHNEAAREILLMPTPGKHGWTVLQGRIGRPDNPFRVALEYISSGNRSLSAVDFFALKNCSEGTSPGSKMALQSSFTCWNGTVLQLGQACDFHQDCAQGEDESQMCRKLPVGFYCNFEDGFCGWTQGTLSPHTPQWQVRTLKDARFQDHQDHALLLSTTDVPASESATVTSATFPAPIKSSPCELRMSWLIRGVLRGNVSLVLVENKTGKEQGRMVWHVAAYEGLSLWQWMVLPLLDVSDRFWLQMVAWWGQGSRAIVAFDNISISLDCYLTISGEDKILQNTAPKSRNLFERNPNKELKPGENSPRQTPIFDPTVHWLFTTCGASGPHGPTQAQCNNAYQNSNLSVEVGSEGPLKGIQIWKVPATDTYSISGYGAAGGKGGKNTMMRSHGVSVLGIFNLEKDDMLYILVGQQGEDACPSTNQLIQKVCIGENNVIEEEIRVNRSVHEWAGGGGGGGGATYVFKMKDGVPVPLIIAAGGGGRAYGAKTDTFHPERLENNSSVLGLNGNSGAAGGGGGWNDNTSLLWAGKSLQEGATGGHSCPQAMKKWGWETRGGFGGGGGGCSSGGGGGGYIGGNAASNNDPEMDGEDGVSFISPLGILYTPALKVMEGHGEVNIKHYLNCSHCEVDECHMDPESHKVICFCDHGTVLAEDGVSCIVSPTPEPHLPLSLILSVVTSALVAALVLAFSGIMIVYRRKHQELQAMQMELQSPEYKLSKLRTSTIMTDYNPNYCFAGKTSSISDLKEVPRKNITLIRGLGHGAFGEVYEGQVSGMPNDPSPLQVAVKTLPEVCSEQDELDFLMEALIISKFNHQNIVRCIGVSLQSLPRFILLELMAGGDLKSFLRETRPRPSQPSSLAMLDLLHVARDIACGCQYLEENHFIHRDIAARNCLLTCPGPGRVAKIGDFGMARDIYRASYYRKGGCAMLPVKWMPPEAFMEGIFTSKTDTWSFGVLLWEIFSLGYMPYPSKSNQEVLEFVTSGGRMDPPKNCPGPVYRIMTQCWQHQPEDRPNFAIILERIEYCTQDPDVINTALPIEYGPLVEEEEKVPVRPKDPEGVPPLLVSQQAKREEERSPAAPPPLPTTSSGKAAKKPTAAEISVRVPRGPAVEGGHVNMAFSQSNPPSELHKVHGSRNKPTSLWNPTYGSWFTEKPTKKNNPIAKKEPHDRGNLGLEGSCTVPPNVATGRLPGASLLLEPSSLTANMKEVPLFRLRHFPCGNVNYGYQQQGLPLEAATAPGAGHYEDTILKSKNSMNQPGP
Description: Inhibition of human ALK using poly[Glu:Tyr] (4:1) as substrate and [gamma-33P]ATP measured after 1 hr

[14] = AUC (0 to infinity) in CD rat at 10 mg/kg, po by LC-MS/MS analysis; type: ADME, organism-based; parameters: dose 10 mg/kg, route oral, time infinity; conditions: in vivo
cells [15] = conditions: Homo sapiens, KARPAS-299, 72 h
Description: Antiproliferative activity against human ALK-positive KARPAS299 cells assessed as reduction in cell viability measured after 72 hrs by CellTiter 96 aqueous one solution cell proliferation assay

[16] = Oral bioavailability in CD rat at 10 mg/kg by LC-MS/MS analysis; type: ADME, organism-based; conditions: in vivo
[17] = Tmax in CD rat at 10 mg/kg, po by LC-MS/MS analysis; type: ADME, organism-based; conditions: in vivo
[18] = Cmax in CD rat at 10 mg/kg, po by LC-MS/MS analysis; type: ADME, organism-based; parameters: dose 10 mg/kg, route oral; conditions: in vivo
cells [19] = conditions: Homo sapiens, U-937, 72 h
Description: Antiproliferative activity against human ALK-negative U937 cells assessed as reduction in cell viability measured after 72 hrs by CellTiter 96 aqueous one solution cell proliferation assay

[20] = biological target: T1, ALK tyrosine kinase receptor; experiment: Inhibition of ALK phosphorylation in mouse xenografted with human KARPAS299 cells assessed as p-ALK level at 25 mg/kg, po administered as single dose measured after 10 hrs relative to 2 hrs vehicle-treated tumor; type: organism-based; parameters: scale not given: the % may be the effect or the level left; conditions: KARPAS-299
Target sequence in this assay (Q9UM73 19-1620 limits assumed): as the sequence (Q9UM73 19-1620 limits assumed) above

Insulin receptor = Insulin receptor (Homo sapiens, UniProt P06213)
Description: Inhibition of human InsR using myelin basic protein as substrate and [gamma-33P]ATP measured after 1 hr

[21] = Clearance in CD rat at 3 mg/kg, iv by LC-MS/MS analysis; type: ADME, organism-based; conditions: in vivo
[22] = AUC (0 to infinity) in CD rat at 3 mg/kg, iv by LC-MS/MS analysis; type: ADME, organism-based; parameters: dose 3 mg/kg, time infinity, route intravenous; conditions: CD, in vivo
[23] = biological target: T1, ALK tyrosine kinase receptor; experiment: Inhibition of ALK phosphorylation in mouse xenografted with human KARPAS299 cells assessed as p-ALK level at 25 mg/kg, po administered as single dose measured after 8 hrs relative to 2 hrs vehicle-treated tumor; type: organism-based; parameters: scale not given: the % may be the effect or the level left; conditions: KARPAS-299
Target sequence in this assay (Q9UM73 19-1620 limits assumed): as above

Insulin receptor, sequence (P06213 28-758 limits assumed): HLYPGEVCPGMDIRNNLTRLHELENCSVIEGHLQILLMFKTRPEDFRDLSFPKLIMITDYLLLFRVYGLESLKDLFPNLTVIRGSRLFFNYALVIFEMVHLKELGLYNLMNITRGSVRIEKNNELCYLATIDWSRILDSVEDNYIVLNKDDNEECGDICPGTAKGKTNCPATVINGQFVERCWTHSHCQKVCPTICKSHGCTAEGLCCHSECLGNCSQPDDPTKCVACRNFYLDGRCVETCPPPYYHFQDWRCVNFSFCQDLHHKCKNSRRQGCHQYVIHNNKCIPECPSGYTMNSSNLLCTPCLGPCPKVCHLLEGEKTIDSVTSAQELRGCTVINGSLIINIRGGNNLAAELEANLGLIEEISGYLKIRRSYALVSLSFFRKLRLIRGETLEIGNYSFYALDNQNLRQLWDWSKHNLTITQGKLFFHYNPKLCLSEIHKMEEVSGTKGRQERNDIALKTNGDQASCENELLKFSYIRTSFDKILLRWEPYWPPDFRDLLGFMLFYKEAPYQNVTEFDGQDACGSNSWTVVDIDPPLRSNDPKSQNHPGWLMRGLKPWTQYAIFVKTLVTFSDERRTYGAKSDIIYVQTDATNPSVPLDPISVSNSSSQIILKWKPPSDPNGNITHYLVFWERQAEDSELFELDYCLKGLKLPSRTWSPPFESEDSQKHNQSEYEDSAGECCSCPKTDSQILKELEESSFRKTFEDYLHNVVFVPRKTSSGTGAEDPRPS
Insulin receptor, sequence (P06213 763-1382 limits assumed): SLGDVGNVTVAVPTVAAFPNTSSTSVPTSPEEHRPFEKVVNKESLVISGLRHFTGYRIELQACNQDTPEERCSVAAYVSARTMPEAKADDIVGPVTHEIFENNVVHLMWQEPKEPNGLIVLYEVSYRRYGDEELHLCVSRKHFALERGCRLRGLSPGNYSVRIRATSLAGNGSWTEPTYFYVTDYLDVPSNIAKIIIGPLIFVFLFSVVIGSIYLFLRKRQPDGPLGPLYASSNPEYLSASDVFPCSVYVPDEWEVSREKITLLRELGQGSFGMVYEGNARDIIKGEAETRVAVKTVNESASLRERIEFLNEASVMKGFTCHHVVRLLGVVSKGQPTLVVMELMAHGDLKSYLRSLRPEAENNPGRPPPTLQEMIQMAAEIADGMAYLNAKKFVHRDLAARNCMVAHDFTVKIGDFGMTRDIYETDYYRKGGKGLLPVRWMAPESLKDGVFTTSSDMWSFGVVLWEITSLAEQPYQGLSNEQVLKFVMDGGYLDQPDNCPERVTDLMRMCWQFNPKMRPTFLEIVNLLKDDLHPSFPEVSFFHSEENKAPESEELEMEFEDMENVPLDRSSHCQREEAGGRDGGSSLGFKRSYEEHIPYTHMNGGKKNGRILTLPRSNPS

| half-life [1] | Activity [2] | Cmax [3] | half-life [4] | half-life [5] | Vd [6] | pIC50 [7] | AUC(0-t) at 24 h [8] | Activity [12] | pIC50 [13] | AUC(0-inf) [14] | pIC50 (cells [15]) | bioavailability [16] | Tmax [17] | Cmax [18] | pIC50 (cells [19]) | pIC50 (Insulin receptor) | clearance [21] | AUC(0-inf) [22] | SMILES | inhibition in vivo at 10 mg/kg (animal or person [9]) | also measured |
| --- | --- | --- | --- | --- | --- | --- | --- | --- | --- | --- | --- | --- | --- | --- | --- | --- | --- | --- | --- | --- | --- |
| 4.7 h | 51% | 411 ng/mL | 3.1 h | 3.7 h | 6.61 L/kg | 7.69 | 3230 ng·h/mL | 39% | 9.28 | 1350 ng·h/mL | 7.68 | 19% | 4 h | 109 ng/mL | 5.78 | 7.07 | 22.7 mL/min/kg | 2170 ng·h/mL | COc1cc(N2CCC(N3CCCC3)CC2)ccc1Nc1ncc(Cl)c(Nc2ccccc2P(C)(C)=O)n1 | 76% | inhibition in vivo at 25 mg/kg (animal or person [10]): 52%; inhibition in vivo at 50 mg/kg (animal or person [11]): 26%; Activity [20]: 2% |
| 5.6 h | 168% | 2940 ng/mL | 2.2 h | 2.7 h | 2.74 L/kg | 7.57 | 13300 ng·h/mL | 25% | 9.44 | 9720 ng·h/mL | 7.15 | 64% | 0.25 h | 772 ng/mL | 5.14 | 6.77 | 10.7 mL/min/kg | 4550 ng·h/mL | COc1cc(N2CCC(O)CC2)ccc1Nc1ncc(Cl)c(Nc2ccccc2P(C)(C)=O)n1 | 96% | Activity [23]: 41%; inhibition in vivo at 25 mg/kg (animal or person [10]): 85%; inhibition in vivo at 50 mg/kg (animal or person [11]): 67% |
| 3.6 h | 160% | 184 ng/mL | 1.6 h | 3.9 h | 2.89 L/kg | 7.06 | 951 ng·h/mL | 125% | 9.27 | 9220 ng·h/mL | 7.26 | 55% | 4 h | 659 ng/mL | 5.34 | 6.46 | 9.83 mL/min/kg | 5040 ng·h/mL | COc1cc(OC2CCN(C)CC2)ccc1Nc1ncc(Cl)c(Nc2ccccc2P(C)(C)=O)n1 |  | Activity [20]: 23% |
